Source: patent US20120136033A1, “Small Molecule Antagonists of Phosphatidylinositol-3,4,5-Triphosphate (PIP3) and Uses Thereof” (President and Fellows of Harvard College, priority 2009, published 2012)

Assays:
SUM-159 cells = experiment: acquisition of the invasive phenotype by SUM-159 cells; assay type: cell-based, human; conditions: reversible
eIF-1 = eIF-1 (Homo sapiens, UniProt P41567); experiment: NMR HSQC specificity control, eIF-1; assay type: binding
Chain of eIF-1 (P41567 whole entry, species assumed): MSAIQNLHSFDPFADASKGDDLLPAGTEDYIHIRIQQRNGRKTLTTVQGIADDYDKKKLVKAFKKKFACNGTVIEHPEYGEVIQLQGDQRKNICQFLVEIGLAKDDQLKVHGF

## O=C(NC(=S)Nc1cc([N+](=O)[O-])cc(Cl)c1O)c1ccccc1 [PIT-1]
SUM-159 cells
  acquisition of the invasive phenotype by SUM-159 cells: blocked acquisition of the invasive phenotype
eIF-1
  changes in HSQC spectrum of eIF-1: did not elicit any changes
